The NIST ThermoML archive (doi:10.1021/je049671t)

Assay: xn = mol fraction of the nth substance listed
Conditions: Liquid, Vibrating tube method

CC(C)C [2-methylpropane] + CCCC
Conditions	mass density [kg/m3]
240 K, 468.1 kPa, x2 = 0.5	626.35
240 K, 481.6 kPa, x2 = 0.25	621.79
240 K, 499 kPa, x2 = 0.75	631.33
240 K, 989.5 kPa, x2 = 0.5	626.9
240 K, 999.5 kPa, x2 = 0.25	622.36
240 K, 1001 kPa, x2 = 0.75	631.85
240 K, 1472.5 kPa, x2 = 0.5	627.41
240 K, 1500.2 kPa, x2 = 0.75	632.38
240 K, 1503.1 kPa, x2 = 0.25	622.9
240 K, 1962.6 kPa, x2 = 0.5	627.92
240 K, 2001.8 kPa, x2 = 0.25	623.43
240 K, 2011.4 kPa, x2 = 0.75	632.88
240 K, 2468.8 kPa, x2 = 0.5	628.43
240 K, 2493.8 kPa, x2 = 0.25	623.95
240 K, 2505.1 kPa, x2 = 0.75	633.43
240 K, 2976.4 kPa, x2 = 0.5	628.95
240 K, 2987.3 kPa, x2 = 0.25	624.47
240 K, 3003.9 kPa, x2 = 0.75	633.91
240 K, 3446 kPa, x2 = 0.5	629.43
240 K, 3481.8 kPa, x2 = 0.25	624.99
240 K, 3507.2 kPa, x2 = 0.75	634.38
240 K, 3970.1 kPa, x2 = 0.25	625.5
240 K, 3982.7 kPa, x2 = 0.5	629.98
240 K, 4015.3 kPa, x2 = 0.75	634.92
240 K, 4467.2 kPa, x2 = 0.5	630.47
240 K, 4485.6 kPa, x2 = 0.25	626.03
240 K, 4509.6 kPa, x2 = 0.75	635.35
240 K, 4983.6 kPa, x2 = 0.5	630.99
240 K, 5011.3 kPa, x2 = 0.75	635.85
240 K, 5024.9 kPa, x2 = 0.25	626.58
240 K, 5486.4 kPa, x2 = 0.5	631.5
240 K, 5515.8 kPa, x2 = 0.75	636.31
240 K, 5519.2 kPa, x2 = 0.25	627.11
240 K, 5981.2 kPa, x2 = 0.5	631.99
240 K, 6023.5 kPa, x2 = 0.75	636.82
240 K, 6067.5 kPa, x2 = 0.25	627.64
240 K, 6486.1 kPa, x2 = 0.5	632.5
240 K, 6492.4 kPa, x2 = 0.75	637.29
240 K, 6517.4 kPa, x2 = 0.25	628.1
240 K, 6977 kPa, x2 = 0.25	628.56
240 K, 6981 kPa, x2 = 0.5	632.99
240 K, 6991.5 kPa, x2 = 0.75	637.75
260 K, 496.3 kPa, x2 = 0.75	610.36
260 K, 503.7 kPa, x2 = 0.25	600.66
260 K, 503.9 kPa, x2 = 0.5	605.31
260 K, 979.3 kPa, x2 = 0.25	601.29
260 K, 993.2 kPa, x2 = 0.75	610.92
260 K, 1011.2 kPa, x2 = 0.5	605.96
260 K, 1489.5 kPa, x2 = 0.75	611.52
260 K, 1490.8 kPa, x2 = 0.25	601.97
260 K, 1508.9 kPa, x2 = 0.5	606.59
260 K, 2002.5 kPa, x2 = 0.75	612.18
260 K, 2003.1 kPa, x2 = 0.25	602.64
260 K, 2010.9 kPa, x2 = 0.5	607.22
260 K, 2507.6 kPa, x2 = 0.5	607.84
260 K, 2510.1 kPa, x2 = 0.75	612.77
260 K, 2511.6 kPa, x2 = 0.25	603.29
260 K, 2993.6 kPa, x2 = 0.5	608.43
260 K, 2999.7 kPa, x2 = 0.25	603.92
260 K, 3016.5 kPa, x2 = 0.75	613.4
260 K, 3495.3 kPa, x2 = 0.75	613.93
260 K, 3505.2 kPa, x2 = 0.25	604.56
260 K, 3514 kPa, x2 = 0.5	609.08
260 K, 3991.1 kPa, x2 = 0.5	609.66
260 K, 4009.7 kPa, x2 = 0.75	614.5
260 K, 4014.1 kPa, x2 = 0.25	605.19
260 K, 4508.9 kPa, x2 = 0.5	610.27
260 K, 4519.2 kPa, x2 = 0.75	615.15
260 K, 4521 kPa, x2 = 0.25	605.82
260 K, 5018.2 kPa, x2 = 0.75	615.65
260 K, 5023.4 kPa, x2 = 0.25	606.44
260 K, 5026.4 kPa, x2 = 0.5	610.89
260 K, 5506.4 kPa, x2 = 0.25	607.02
260 K, 5512.2 kPa, x2 = 0.75	616.21
260 K, 5517.9 kPa, x2 = 0.5	611.47
260 K, 6004.4 kPa, x2 = 0.75	616.79
260 K, 6023 kPa, x2 = 0.5	612.08
260 K, 6028.5 kPa, x2 = 0.25	607.65
260 K, 6519.2 kPa, x2 = 0.25	608.25
260 K, 6526.2 kPa, x2 = 0.75	617.32
260 K, 6531.1 kPa, x2 = 0.5	612.67

240 K
Conditions	mass density [kg/m3]
x2 = 0.25	621.33
x2 = 0.5	625.96
x2 = 0.75	630.89
